ChEMBL document CHEMBL2311529, “Structure-activity relationships in 1,4-benzodioxan-related compounds. 11. (1) reversed enantioselectivity of 1,4-dioxane derivatives in α1-adrenergic and 5-HT1A receptor binding sites recognition” (J Med Chem, 2013)

What was measured:
PC-3 [1] = assay: Cytotoxicity against human PC3 cells assessed as concentration required for tumor growth inhibition after 48 hrs by sulforhodamine B assay; type: functional; details: PC-3, 48 h
PC-3 [2] = assay: Cytotoxicity against human PC3 cells after 48 hrs by sulforhodamine B assay; type: functional; details: PC-3, 48 h
[3] = molecular target: T1, 5-hydroxytryptamine receptor 1A (Homo sapiens) (UniProt P08908); details: HeLa
T1 sequence (whole entry): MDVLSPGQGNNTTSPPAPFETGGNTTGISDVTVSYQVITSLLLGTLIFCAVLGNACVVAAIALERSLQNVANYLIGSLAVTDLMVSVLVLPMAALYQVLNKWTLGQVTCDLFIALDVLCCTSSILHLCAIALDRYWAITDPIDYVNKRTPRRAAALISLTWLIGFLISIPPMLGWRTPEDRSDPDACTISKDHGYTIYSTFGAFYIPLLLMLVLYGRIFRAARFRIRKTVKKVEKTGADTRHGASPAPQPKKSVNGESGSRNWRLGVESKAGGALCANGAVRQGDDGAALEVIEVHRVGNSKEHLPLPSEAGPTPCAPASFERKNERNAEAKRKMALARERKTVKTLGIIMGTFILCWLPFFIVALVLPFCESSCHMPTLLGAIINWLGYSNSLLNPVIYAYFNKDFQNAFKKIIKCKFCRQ
Description: Agonist activity at human 5HT1A receptor expressed in HeLa cell membranes by [35S]GTPgammaS binding assay

[4] = molecular target: T2, Alpha-1D adrenergic receptor (Homo sapiens, UniProt P25100); assay: Displacement of [3H]prazosin from human recombinant alpha1D adrenergic receptor expressed in CHO cell membranes after 30 mins
T2 sequence (P25100 whole entry): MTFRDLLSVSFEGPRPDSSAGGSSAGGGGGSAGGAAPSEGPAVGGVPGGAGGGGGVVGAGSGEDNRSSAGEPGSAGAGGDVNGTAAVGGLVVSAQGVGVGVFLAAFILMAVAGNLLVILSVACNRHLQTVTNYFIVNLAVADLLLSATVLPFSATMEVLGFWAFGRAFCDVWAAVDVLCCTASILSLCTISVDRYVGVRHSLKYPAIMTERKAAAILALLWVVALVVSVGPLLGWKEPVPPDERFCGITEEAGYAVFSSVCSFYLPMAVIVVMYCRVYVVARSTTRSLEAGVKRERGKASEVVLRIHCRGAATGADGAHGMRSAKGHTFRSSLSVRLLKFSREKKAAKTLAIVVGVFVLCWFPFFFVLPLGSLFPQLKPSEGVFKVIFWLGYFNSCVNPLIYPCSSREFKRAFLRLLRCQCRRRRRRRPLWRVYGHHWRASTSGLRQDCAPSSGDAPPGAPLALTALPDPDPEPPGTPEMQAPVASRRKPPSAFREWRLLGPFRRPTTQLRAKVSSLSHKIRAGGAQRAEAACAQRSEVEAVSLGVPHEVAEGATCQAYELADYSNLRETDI

[5] = molecular target: T3, Alpha-1B adrenergic receptor (Homo sapiens, UniProt P35368); assay: Displacement of [3H]prazosin from human recombinant alpha1B adrenergic receptor expressed in CHO cell membranes after 30 mins
T3 sequence (P35368 whole entry): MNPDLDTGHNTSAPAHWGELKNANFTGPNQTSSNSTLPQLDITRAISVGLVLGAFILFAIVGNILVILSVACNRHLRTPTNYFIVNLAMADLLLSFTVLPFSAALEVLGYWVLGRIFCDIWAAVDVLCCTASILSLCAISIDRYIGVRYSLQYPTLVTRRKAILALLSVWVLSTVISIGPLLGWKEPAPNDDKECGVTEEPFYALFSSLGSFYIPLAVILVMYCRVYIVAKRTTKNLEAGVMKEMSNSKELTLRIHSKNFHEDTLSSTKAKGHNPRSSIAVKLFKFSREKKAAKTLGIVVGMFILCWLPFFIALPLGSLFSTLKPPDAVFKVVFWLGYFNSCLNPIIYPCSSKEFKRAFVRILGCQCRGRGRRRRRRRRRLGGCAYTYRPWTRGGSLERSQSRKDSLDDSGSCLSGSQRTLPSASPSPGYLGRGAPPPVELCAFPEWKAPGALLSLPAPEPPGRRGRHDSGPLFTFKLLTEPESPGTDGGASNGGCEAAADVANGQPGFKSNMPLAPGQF

[6] = molecular target: T4, 5-hydroxytryptamine receptor 1A (Homo sapiens, UniProt P08908); assay: Displacement of [3H]8-OH-DPAT from human recombinant 5HT1A receptor expressed in HeLa cell membranes after 30 mins
T4 sequence (P08908 whole entry): T1 sequence (whole entry)

[7] = molecular target: T5, Alpha-1A adrenergic receptor (Homo sapiens, UniProt P35348); assay: biochemical
T5 sequence (P35348 whole entry): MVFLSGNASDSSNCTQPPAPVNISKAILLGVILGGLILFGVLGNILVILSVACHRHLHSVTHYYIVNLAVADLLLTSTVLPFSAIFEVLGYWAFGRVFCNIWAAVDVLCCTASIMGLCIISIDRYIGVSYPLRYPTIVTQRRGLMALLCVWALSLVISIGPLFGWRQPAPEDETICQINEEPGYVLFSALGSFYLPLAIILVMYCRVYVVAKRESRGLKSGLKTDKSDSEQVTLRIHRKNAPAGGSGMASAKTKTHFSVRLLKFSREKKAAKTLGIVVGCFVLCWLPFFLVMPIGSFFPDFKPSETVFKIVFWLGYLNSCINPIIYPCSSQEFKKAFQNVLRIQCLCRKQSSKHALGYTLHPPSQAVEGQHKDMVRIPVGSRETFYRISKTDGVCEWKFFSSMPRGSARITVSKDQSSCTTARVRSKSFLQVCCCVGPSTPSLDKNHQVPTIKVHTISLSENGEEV
Description: Displacement of [3H]prazosin from human recombinant alpha1A adrenergic receptor expressed in CHO cell membranes after 30 mins

PC-3 [8] = assay: Cytotoxicity against human PC3 cells transfected with siGLO after 48 hrs by sulforhodamine B assay; type: functional; details: PC-3, 48 h; for CC50: read-out: LC50 (the source's name)
PC-3 [9] = assay: Cytotoxicity against human PC3 cells transfected with sialpha1D-AR after 48 hrs by sulforhodamine B assay; type: functional; details: PC-3, 48 h; for CC50: read-out: LC50 (the source's name)
PC-3 [10] = assay: Cytotoxicity against human PC3 cells transfected with sialpha1D-AR assessed as concentration required for tumor growth inhibition after 48 hrs by sulforhodamine B assay; type: functional; details: PC-3, 48 h
PC-3 [11] = assay: Cytotoxicity against human PC3 cells transfected with siGLO assessed as concentration required for tumor growth inhibition after 48 hrs by sulforhodamine B assay; type: functional; details: PC-3, 48 h
[12] = molecular target: T1, 5-hydroxytryptamine receptor 1A (Homo sapiens); details: HeLa; remark: listed apart in the source
Description: Partial agonist activity at human 5HT1A receptor expressed in HeLa cell membranes after 20 mins by [35S]GTPgammaS binding assay

PC-3 [13] = assay: Ratio of LC50 for human PC3 cells transfected with sialpha1D-AR to LC50 for human PC3 cells; type: functional
PC-3 [14] = assay: Ratio of concentration required for tumor growth inhibition of human PC3 cells transfected with sialpha1D-AR to concentration required for tumor growth inhibition of human PC3 cells; type: functional
PC-3 [15] = assay: Ratio of GI50 for human PC3 cells transfected with sialpha1D-AR to GI50 for human PC3 cells; type: functional

Compound `COc1ccccc1OCCNCC1COCC(c2ccccc2)(c2ccccc2)O1` (racemic) has a TGI (PC-3 [1]) of 16000 nM, a GI50 (PC-3 [2]) of 9000 nM and a pD2 [3] of 9.4. It also gave a Ki [4] of 1.15 nM, a Ki [5] of 56.2 nM and a Ki [6] of 0.661 nM. For the same compound, the Ki [7] was 27.5 nM.
In the case of `COc1cccc(OC)c1OCCNC[C@@H]1COCC(c2ccccc2)(c2ccccc2)O1`, the TGI (PC-3 [1]) is reported as 58000 nM, the GI50 (PC-3 [2]) is reported as 32000 nM and the LC50 (PC-3 [2]) is reported as 65000 nM. It also gave a pD2 [3] of 5.88, a Ki [4] of 56.2 nM and a Ki [5] of 195 nM. The Ki [6] was 44.7 nM and the Ki [7] was 166 nM.
Compound `NCCc1c[nH]c2ccc(O)cc12` has a pD2 [3] of 7.3.
For `COc1cccc(OC)c1OCCNC[C@H]1COc2ccccc2O1`, the Ki [6] was 2.45 nM.
`c1ccc(OCCNCC2COCC(c3ccccc3)(c3ccccc3)O2)cc1` (racemic) gave a TGI (PC-3 [1]) of 6000 nM, a GI50 (PC-3 [8]) of 4100 nM and a CC50 (PC-3 [8]) of 10700 nM. The GI50 (PC-3 [2]) was 3000 nM, the LC50 (PC-3 [2]) was 8000 nM and the pD2 [3] was 9.11. For the same compound, the Ki [4] was 3.63 nM, the Ki [5] was 120 nM and the GI50 (PC-3 [9]) was 23600 nM. It also gave a CC50 (PC-3 [9]) of 39800 nM, a TGI (PC-3 [10]) of 25000 nM and a Ki [6] of 0.589 nM. It also gave a Ki [7] of 170 nM and a TGI (PC-3 [11]) of 7100 nM.
Compound `COc1ccccc1OCCNC[C@@H]1COCC(c2ccccc2)(c2ccccc2)O1` has a TGI (PC-3 [1]) of 9000 nM, a GI50 (PC-3 [2]) of 4000 nM and a Ki [4] of 1.38 nM. For the same compound, the Ki [5] was 21.9 nM, the pD2 [12] was 7.7 and the Ki [6] was 0.603 nM. It also gave a Ki [7] of 16.6 nM.
`COc1cccc(OC)c1OCCNC[C@@H]1COc2ccccc2O1` showed a Ki [6] of 40.7 nM.
`COc1cccc(OC)c1OCCNC[C@H]1COCC(c2ccccc2)(c2ccccc2)O1` showed a TGI (PC-3 [1]) of 30000 nM, a GI50 (PC-3 [2]) of 16000 nM and an LC50 (PC-3 [2]) of 37000 nM. It also gave a pD2 [3] of 8.3, a Ki [4] of 724 nM and a Ki [5] of 1660 nM. For the same compound, the Ki [6] was 0.55 nM and the Ki [7] was > 1000 nM.
`COc1ccccc1N1CCN(CCN2C(=O)CC3(CCCC3)CC2=O)CC1` was tested, and the pD2 [3] was 9.27.
With `c1ccc(OCCNC[C@H]2COCC(c3ccccc3)(c3ccccc3)O2)cc1` the TGI (PC-3 [1]) was 43000 nM, the GI50 (PC-3 [8]) was 22800 nM and the CC50 (PC-3 [8]) was > 300000 nM. The GI50 (PC-3 [2]) was 19100 nM, the LC50 (PC-3 [2]) was > 300000 nM and the Ki [4] was 83.2 nM. For the same compound, the Ki [5] was 170 nM, the GI50 (PC-3 [9]) was 20700 nM and the CC50 (PC-3 [9]) was > 300000 nM. For the same compound, the pD2 [12] was 9.19, the TGI (PC-3 [10]) was 49200 nM and the Ki [6] was 0.398 nM. For the same compound, the Ki [7] was 437 nM and the TGI (PC-3 [11]) was 41700 nM.
Compound `COc1ccccc1OCCNC[C@H]1COCC(c2ccccc2)(c2ccccc2)O1` has a TGI (PC-3 [1]) of 34000 nM, a GI50 (PC-3 [2]) of 21000 nM and a Ki [4] of 25.1 nM. For the same compound, the Ki [5] was 417 nM, the pD2 [12] was 9.19 and the Ki [6] was 0.309 nM. For the same compound, the Ki [7] was 257 nM.
Compound `COc1cccc(OC)c1OCCNCC1COc2ccccc2O1` (stereo unspecified) has a GI50 (PC-3 [2]) of 64600 nM.
`COc1cccc(OC)c1OCCNCC1COCC(c2ccccc2)(c2ccccc2)O1` (racemic) was tested, and the TGI (PC-3 [1]) was 32000 nM, the GI50 (PC-3 [2]) was 14000 nM and the LC50 (PC-3 [2]) was 45000 nM. It also gave a pD2 [3] of 8.28, a Ki [4] of 66.1 nM and a Ki [5] of 324 nM. It also gave a Ki [6] of 1.41 nM and a Ki [7] of 339 nM.
Work on `c1ccc(OCCNC[C@@H]2COCC(c3ccccc3)(c3ccccc3)O2)cc1` yielded a TGI (PC-3 [1]) of 2100 nM, a GI50 (PC-3 [8]) of 900 nM and a CC50 (PC-3 [8]) of 5800 nM. For the same compound, the GI50 (PC-3 [2]) was 600 nM, the LC50 (PC-3 [2]) was 4000 nM and the RatioLC50 (PC-3 [13]) was 13. For the same compound, the Ki [4] was 3.24 nM, the Ki [5] was 52.5 nM and the GI50 (PC-3 [9]) was 10200 nM. The CC50 (PC-3 [9]) was 52100 nM, the Ratio (PC-3 [14]) was 12.9 and the pD2 [12] was 7.82. It also gave a TGI (PC-3 [10]) of 27100 nM, a Ki [6] of 1.48 nM and a RatioGI50 (PC-3 [15]) of 17. For the same compound, the Ki [7] was 129 nM and the TGI (PC-3 [11]) was 2500 nM.
For `COc1cc2nc(N3CCN(C(=O)C4COc5ccccc5O4)CC3)nc(N)c2cc1OC` (stereo unspecified) [DOXAZOSIN], the GI50 (PC-3 [2]) was 26900 nM.
